Measurements as given in patent US20240368150A1 (Hoffmann-La Roche Inc., priority 2021, published 2024).
Read-outs that look alike come from different tables or passages of the source.

Legend:
primary human T-cells [1] = test: Proliferation assay after 5 days (CellTiter-Glo, CD3 stimulation; PBS counter screen); type: cell-based; conditions: CD3 stimulation; for Emax / EC50: Homo sapiens, T-cell, 120 h; for Emax: read-out: Emax proliferation (% activation); for EC50: primary human T-cells, CellTiter-Glo after 5 days, EC50 of fitted sigmoidal curve, read-out: Tcell Proliferation CD3 EC50
Outline: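 Primary human T-cells, with or without CD3 stimulation, exposed to compounds for 5 days; cell number read as ATP by CellTiter-Glo 2.0 luminescence after 45 min equilibration and 15 min reagent incubation at room temperature. Compounds activating unstimulated cells or reducing viability were flagged.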

primary human T-cells [2] = tested on: primary human T-cells
[3] = 5 days, normalized to reference compound A1 as stimulator control = 100%, DMSO neutral control

Row | Compound | Emax (primary human T-cells [1]; [3]) [%] | EC50 (primary human T-cells [1]) [nM] | EC50 (primary human T-cells [2]) [nM] | Emax proliferation (% activation) (primary human T-cells [1]; [3])
1 | CCN1CC(c2nnc(-c3cc4c(cc3F)S(=O)(=O)C[C@H](N)C(=O)N4Cc3ccc(Cl)cc3)o2)CC(F)(F)C1 (stereo partly drawn) [Example 150, (3R)-3-amino-5-[(4-chlorophenyl)methyl]-7-[5-(1-ethyl-5,5-difluoro-3-piperidyl)-1,3,4-oxadiazol-2-yl]-8-fluoro-1,1-dioxo-2,3-dihydro-1λ^6,5-benzothiazepin-4-one] | 128 | 75.7 | 358 | –
2 | COCCN1CC(c2nnc(-c3cc4c(cc3F)S(=O)(=O)C[C@H](N)C(=O)N4Cc3ccc(Cl)cc3)o2)CC(F)(F)C1 (stereo partly drawn) [Example 151, (3R)-3-amino-5-[(4-chlorophenyl)methyl]-7-[5-[5,5-difluoro-1-(2-methoxyethyl)-3-piperidyl]-1,3,4-oxadiazol-2-yl]-8-fluoro-1,1-dioxo-2,3-dihydro-1λ^6,5-benzothiazepin-4-one] | 112 | 45.9 | 93.4 | –
3 | N[C@H]1CS(=O)(=O)c2cc(F)c(-c3nnc(C4CN(CCO)CC(F)(F)C4)o3)cc2N(Cc2ccc(Cl)cc2)C1=O (stereo partly drawn) [Example 152, (3R)-3-amino-5-[(4-chlorophenyl)methyl]-7-[5-[5,5-difluoro-1-(2-hydroxyethyl)-3-piperidyl]-1,3,4-oxadiazol-2-yl]-8-fluoro-1,1-dioxo-2,3-dihydro-1λ^6,5-benzothiazepin-4-one] | 78 | 549 | 477 | –
4 | CN1CC(c2nnc(-c3cc4c(cc3F)S(=O)(=O)C[C@H](N)C(=O)N4Cc3ccc(Cl)cc3)o2)CC(F)(F)C1 (stereo partly drawn) [Example 153, (3R)-3-amino-5-[(4-chlorophenyl)methyl]-7-[5-(5,5-difluoro-1-methyl-3-piperidyl)-1,3,4-oxadiazol-2-yl]-8-fluoro-1,1-dioxo-2,3-dihydro-1λ^6,5-benzothiazepin-4-one] | – | 112 | 246 | 150
5 | CN1CCCC(c2nnc(-c3cc4c(cc3F)S(=O)(=O)C[C@H](N)C(=O)N4Cc3ccc(Cl)cc3)o2)C1 (stereo partly drawn) [Example 154, (3R)-3-amino-5-[(4-chlorophenyl)methyl]-8-fluoro-7-[5-(1-methyl-3-piperidyl)-1,3,4-oxadiazol-2-yl]-1,1-dioxo-2,3-dihydro-1λ^6,5-benzothiazepin-4-one] | 86 | 1720 | 890 | –
6 | CN1CC(C)(c2nnc(-c3cc4c(cc3F)S(=O)(=O)C[C@H](N)C(=O)N4Cc3ccc(Cl)cc3)o2)C1 [Example 155, (3R)-3-amino-5-[(4-chlorophenyl)methyl]-7-[5-(1,3-dimethylazetidin-3-yl)-1,3,4-oxadiazol-2-yl]-8-fluoro-1,1-dioxo-2,3-dihydro-1λ^6,5-benzothiazepin-4-one] | 72 | 4180 | 778 | –
7 | CC(C)(CNC1COC1)c1nnc(-c2cc3c(cc2F)S(=O)(=O)C[C@H](N)C(=O)N3Cc2ccc(Cl)cc2)o1 [Example 156, (3R)-3-amino-5-[(4-chlorophenyl)methyl]-7-[5-[1,1-dimethyl-2-(oxetan-3-ylamino)ethyl]-1,3,4-oxadiazol-2-yl]-8-fluoro-1,1-dioxo-2,3-dihydro-1lambda6,5-benzothiazepin-4-one] | 135 | 8130 | 3340 | –
8 | CC(C)(CNC1CCOC1)c1nnc(-c2cc3c(cc2F)S(=O)(=O)C[C@H](N)C(=O)N3Cc2ccc(Cl)cc2)o1 (stereo partly drawn) [Example 157, (3R)-3-amino-5-[(4-chlorophenyl)methyl]-7-[5-[1,1-dimethyl-2-(tetrahydrofuran-3-ylamino)ethyl]-1,3,4-oxadiazol-2-yl]-8-fluoro-1,1-dioxo-2,3-dihydro-1λ^6,5-benzothiazepin-4-one] | 106 | 1010 | 2100 | –
9 | CN1CCC(F)(F)C(c2nnc(-c3cc4c(cc3F)S(=O)(=O)C[C@H](N)C(=O)N4Cc3ccc(Cl)cc3)o2)C1 (stereo partly drawn) [Example 158, (3R)-3-amino-5-[(4-chlorophenyl)methyl]-7-[5-(4,4-difluoro-1-methyl-3-piperidyl)-1,3,4-oxadiazol-2-yl]-8-fluoro-1,1-dioxo-2,3-dihydro-1λ^6,5-benzothiazepin-4-one] | 141 | 2420 | 194 | –
10 | N[C@H]1CS(=O)(=O)c2cc(F)c(-c3nnc(C4CN(C5CC5)CC(F)(F)C4)o3)cc2N(Cc2ccc(Cl)cc2)C1=O (stereo partly drawn) [Example 159, (3R)-3-amino-5-[(4-chlorophenyl)methyl]-7-[5-(1-cyclopropyl-5,5-difluoro-3-piperidyl)-1,3,4-oxadiazol-2-yl]-8-fluoro-1,1-dioxo-2,3-dihydro-1λ^6,5-benzothiazepin-4-one] | 121 | 184 | 218 | –
11 | N[C@H]1CS(=O)(=O)c2cc(F)c(-c3nnc(C4CNCC(F)(F)C4)o3)cc2N(Cc2ccc(Cl)cc2)C1=O (stereo partly drawn) [Example 160, (3R)-3-amino-5-[(4-chlorophenyl)methyl]-7-[5-(5,5-difluoro-3-piperidyl)-1,3,4-oxadiazol-2-yl]-8-fluoro-1,1-dioxo-2,3-dihydro-1λ^6,5-benzothiazepin-4-one] | 96 | 382 | 500 | –
12 | CC1(c2nnc(-c3cc4c(cc3F)S(=O)(=O)C[C@H](N)C(=O)N4Cc3ccc(Cl)cc3)o2)CCNCC1 [Example 161, (3R)-3-amino-5-[(4-chlorophenyl)methyl]-8-fluoro-7-[5-(4-methyl-4-piperidyl)-1,3,4-oxadiazol-2-yl]-1,1-dioxo-2,3-dihydro-1λ^6,5-benzothiazepin-4-one] | 73 | 5480 | 1150 | –
13 | CC(=O)N1CC(c2nnc(-c3cc4c(cc3F)S(=O)(=O)C[C@H](N)C(=O)N4Cc3ccc(Cl)cc3)o2)CC(F)(F)C1 (stereo partly drawn) [Example 162, (3R)-7-[5-(1-acetyl-5,5-difluoro-3-piperidyl)-1,3,4-oxadiazol-2-yl]-3-amino-5-[(4-chlorophenyl)methyl]-8-fluoro-1,1-dioxo-2,3-dihydro-1λ^6,5-benzothiazepin-4-one] | 84 | 628 | 383 | –
14 | COC(=O)N1CC(c2nnc(-c3cc4c(cc3F)S(=O)(=O)C[C@H](N)C(=O)N4Cc3ccc(Cl)cc3)o2)CC(F)(F)C1 (stereo partly drawn) [Example 163, methyl 3,3-difluoro-5-[5-[(3R)-3-amino-5-[(4-chlorophenyl)methyl]-8-fluoro-1,1,4-trioxo-2,3-dihydro-1λ^6,5-benzothiazepin-7-yl]-1,3,4-oxadiazol-2-yl]piperidine-1-carboxylate] | 118 | 51.4 | 99.7 | –
15 | CS(=O)(=O)N1CC(c2nnc(-c3cc4c(cc3F)S(=O)(=O)C[C@H](N)C(=O)N4Cc3ccc(Cl)cc3)o2)CC(F)(F)C1 (stereo partly drawn) [Example 164, (3R)-3-amino-5-[(4-chlorophenyl)methyl]-7-[5-(5,5-difluoro-1-methylsulfonyl-3-piperidyl)-1,3,4-oxadiazol-2-yl]-8-fluoro-1,1-dioxo-2,3-dihydro-1λ^6,5-benzothiazepin-4-one] | 82 | 292 | 708 | –
16 | COC(=O)N1CCCC(c2nnc(-c3cc4c(cc3F)S(=O)(=O)C[C@H](N)C(=O)N4Cc3ccc(Cl)cc3)o2)C1 (stereo partly drawn) [Example 165, methyl 3-[5-[(3R)-3-amino-5-[(4-chlorophenyl)methyl]-8-fluoro-1,1,4-trioxo-2,3-dihydro-1λ^6,5-benzothiazepin-7-yl]-1,3,4-oxadiazol-2-yl]piperidine-1-carboxylate] | 85 | 309 | 458 | –
17 | COC(=O)N1CCC(c2nnc(-c3cc4c(cc3F)S(=O)(=O)C[C@H](N)C(=O)N4Cc3ccc(Cl)cc3)o2)C1 (stereo partly drawn) [Example 166, methyl 3-[5-[(3R)-3-amino-5-[(4-chlorophenyl)methyl]-8-fluoro-1,1,4-trioxo-2,3-dihydro-1λ^6,5-benzothiazepin-7-yl]-1,3,4-oxadiazol-2-yl]pyrrolidine-1-carboxylate] | 104 | 904 | 567 | –
18 | COC(=O)N1CCC(c2nnc(-c3cc4c(cc3F)S(=O)(=O)C[C@H](N)C(=O)N4Cc3ccc(Cl)cc3)o2)CC1 [Example 167, methyl 4-[5-[(3R)-3-amino-5-[(4-chlorophenyl)methyl]-8-fluoro-1,1,4-trioxo-2,3-dihydro-1λ^6,5-benzothiazepin-7-yl]-1,3,4-oxadiazol-2-yl]piperidine-1-carboxylate] | 100 | 208 | 122 | –
19 | CC(=O)N1CCC(c2nnc(-c3cc4c(cc3F)S(=O)(=O)C[C@H](N)C(=O)N4Cc3ccc(Cl)cc3)o2)CC1 [Example 168, (3R)-7-[5-(1-acetyl-4-piperidyl)-1,3,4-oxadiazol-2-yl]-3-amino-5-[(4-chlorophenyl)methyl]-8-fluoro-1,1-dioxo-2,3-dihydro-1λ^6,5-benzothiazepin-4-one] | 63 | 4950 | 1590 | –
20 | CC(=O)N1CCC(C)(c2nnc(-c3cc4c(cc3F)S(=O)(=O)C[C@H](N)C(=O)N4Cc3ccc(Cl)cc3)o2)CC1 [Example 169, (3R)-7-[5-(1-acetyl-4-methyl-4-piperidyl)-1,3,4-oxadiazol-2-yl]-3-amino-5-[(4-chlorophenyl)methyl]-8-fluoro-1,1-dioxo-2,3-dihydro-1λ^6,5-benzothiazepin-4-one] | 95 | 2470 | 3340 | –
21 | CC1(c2nnc(-c3cc4c(cc3F)S(=O)(=O)C[C@H](N)C(=O)N4Cc3ccc(Cl)cc3)o2)CCN(S(C)(=O)=O)CC1 [Example 170, (3R)-3-amino-5-[(4-chlorophenyl)methyl]-8-fluoro-7-[5-(4-methyl-1-methylsulfonyl-4-piperidyl)-1,3,4-oxadiazol-2-yl]-1,1-dioxo-2,3-dihydro-1λ^6,5-benzothiazepin-4-one] | 97 | 1500 | 405 | –
